Read-outs that look alike come from different tables or passages of the source. Where no end group is shown, it is not given here.
Experiments:
[1] = system: human adipose-derived mesenchymal stem cells (AD-MSC)
Method: (§1) The aim was to analyze the cytotoxicity caused by the addition of Peptide-1 or Peptide-2 to human adipose-derived mesenchymal stem cells (AD-MSC) using the CCK-8 assay.
(§2) Specifically, AD-MSC cells were seeded in 96-well plates at a density of 1.5×10^3 cells/well and cultured in Dulbecco's Modified Eagle's Medium (DMEM) supplemented with 10% FBS for 24 hours. Then, the medium was replaced with DMEM medium supplemented with 5% FBS, and Peptide-1 or Peptide-2 was treated at different concentrations, respectively. Subsequently, the medium was replaced every 3 days and Peptide-1 or Peptide-2 was treated at different concentrations, respectively. To confirm CCK-8 activity, after 7 days, CCK-8 (Dojindo, CCK-8 kit) solution was added at 1/10 volume of the culture medium, and incubated for 2 hours. The culture medium was sampled and CCK-8 activity was confirmed at a wavelength of 450 nm using a microplate reader.

[2] = system: human adipose-derived mesenchymal stem cells (AD-MSC); assay: CCK-8 cytotoxicity assay in AD-MSC cells; conditions: different concentrations, 7 days, absorbance 450 nm, FIG. 1, FIG. 2
Method: as §1, §2

Sequence | toxicity toward adipose-derived mesenchymal stem cells (CCK-8 activity) [1] | toxicity toward adipose-derived mesenchymal stem cells (CCK-8 activity) [2]
QSSLRALR [Peptide-2, QSSLRALR] | did not exhibit toxicity | 
SHIAGGLSFHSTV [Peptide-1, SHIAGGLSFHSTV] |  | did not exhibit toxicity
